Reference: patent publication US20210300943A1, “OGA INHIBITOR COMPOUNDS” (Janssen Pharmaceutica NV, priority 2018, published 2021)

How the values were obtained:
[1] = target: T1, OGA (Homo sapiens, UniProt O60502); experiment: OGA cellular assay (ICC detection of O-GlcNAcylated proteins in HEK293 cells inducible for P301L mutant human Tau); assay type: cell-based; details: for Emax: HEK293, HEK293 cells inducible for P301L mutant human Tau, maximal effect, Thiamet G 200 uM as maximum; for EC50: HEK293 cells inducible for P301L mutant human Tau, 6 hours incubation, read-out: Cellular hOGA, pEC50 (converted)
T1 construct: endogenous in cells; host or cells: HEK293 cells inducible for P301L mutant human Tau (2N4R)
T1 sequence (O60502 1-916): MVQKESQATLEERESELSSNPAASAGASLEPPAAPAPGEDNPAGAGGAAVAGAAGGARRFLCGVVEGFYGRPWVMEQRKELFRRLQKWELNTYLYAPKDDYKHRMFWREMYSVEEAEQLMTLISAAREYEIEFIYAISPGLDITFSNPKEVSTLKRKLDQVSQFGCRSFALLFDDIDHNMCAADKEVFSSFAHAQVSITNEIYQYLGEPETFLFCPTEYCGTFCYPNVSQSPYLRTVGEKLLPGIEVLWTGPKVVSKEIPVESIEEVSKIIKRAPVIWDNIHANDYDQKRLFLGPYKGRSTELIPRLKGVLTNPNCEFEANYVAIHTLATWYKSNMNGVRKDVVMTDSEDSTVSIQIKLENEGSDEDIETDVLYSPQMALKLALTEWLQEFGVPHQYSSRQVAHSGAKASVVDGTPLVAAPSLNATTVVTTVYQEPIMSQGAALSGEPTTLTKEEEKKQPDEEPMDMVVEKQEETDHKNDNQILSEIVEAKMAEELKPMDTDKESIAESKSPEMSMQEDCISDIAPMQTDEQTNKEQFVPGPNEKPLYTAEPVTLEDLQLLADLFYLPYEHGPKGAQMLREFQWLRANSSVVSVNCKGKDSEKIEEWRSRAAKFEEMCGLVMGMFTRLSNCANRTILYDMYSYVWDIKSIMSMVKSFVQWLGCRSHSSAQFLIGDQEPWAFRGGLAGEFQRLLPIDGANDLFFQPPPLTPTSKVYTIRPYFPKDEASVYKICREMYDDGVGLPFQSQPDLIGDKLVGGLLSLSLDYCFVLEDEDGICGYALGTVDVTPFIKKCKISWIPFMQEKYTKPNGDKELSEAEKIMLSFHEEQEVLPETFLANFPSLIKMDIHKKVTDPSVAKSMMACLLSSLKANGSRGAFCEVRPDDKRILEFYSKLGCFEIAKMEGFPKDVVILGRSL
Protocol: HEK293 cells inducible for P301L mutant human Tau (isoform 2N4R) were established at Janssen. Thiamet-G was used for both plate validation (high control) and as reference compound (reference EC50 assay validation). OGA inhibition is evaluated through the immunocytochemical (ICC) detection of O-GlcNAcylated proteins by the use of a monoclonal antibody (CTD110.6; Cell Signaling, #9875) detecting 0-GlcNAcylated residues as previously described (Dorfmueller et al. 2010 Chemistry & biology, 17:1250). Inhibition of OGA will result in an increase of O-GlcNAcylated protein levels resulting in an increased signal in the experiment. Cell nuclei are stained with Hoechst to give a cell culture quality control and a rough estimate of immediate compounds toxicity, if any. ICC pictures are imaged with a Perkin Elmer Opera Phenix plate microscope and quantified with the provided software Perkin Elmer Harmony 4.1.
Cells were propagated in DMEM high Glucose (Sigma, #D5796) following standard procedures. 2 days before the cell assay cells are split, counted and seeded in Poly-D-Lysine (PDL) coated 96-wells (Greiner, #655946) plate at a cell density of 12,000 cells per cm^2 (4,000 cells per well) in 100 μl of Assay Medium (Low Glucose medium is used to reduce basal levels of GlcNAcylation) (Park et al. 2014 The Journal of biological chemistry 289:13519). At the day of compound test medium from assay plates was removed and replenished with 90 μl of fresh Assay Medium. 10 μl of compounds at a 10 fold final concentration were added to the wells. Plates were centrifuged shortly before incubation in the cell incubator for 6 hours. DMSO concentration was set to 0.2%. Medium is discarded by applying vacuum. For staining of cells medium was removed and cells washed once with 100 μl D-PBS (Sigma, #D8537). From next step onwards unless other stated assay volume was always 50 μl and incubation was performed without agitation and at room temperature. Cells were fixed in 50 μl of a 4% paraformaldehyde (PFA, Alpha aesar, #043368) PBS solution for 15 minutes at room temperature. […] Before analysis samples were washed 2 times manually for 5 minutes in ICC base buffer.
Imaging is performed using Perkin Elmer Phenix Opera using a water 20× objective and recording 9 fields per well. Intensity readout at 488 nm is used as a measure of O-GlcNAcylation level of total proteins in wells. To assess potential toxicity of compounds nuclei were counted using the Hoechst staining. IC50-values are calculated using parametric non-linear regression model fitting. As a maximum inhibition Thiamet G at a 200 uM concentration is present on each plate. In addition, a concentration response of Thiamet G is calculated on each plate.

[2] = target: T2, recombinant human Meningioma Expressed Antigen 5 (MGEA5), also referred to as O-GlcNAcase (OGA) (Homo sapiens, UniProt O60502); experiment: OGA biochemical assay (inhibition of FM-GlcNAc hydrolysis, fluorescence); details: for Emax: maximal effect, read-out: Enzymatic Emax (%); for IC50: read-out: Enzymatic hOGA, pIC50 (converted)
T2 construct: Full length OGA enzyme was purchased at OnGene (cat #TP322411); purchased OnGene (so in the source)
T2 sequence (O60502 1-916): T1 sequence (O60502 1-916)
Text: The assay is based on the inhibition of the hydrolysis of fluorescein mono-β-D-N-Acetyl-Glucosamine (FM-GlcNAc) (Mariappa et al. 2015, Biochem J 470:255) by the recombinant human Meningioma Expressed Antigen 5 (MGEA5), also referred to as O-GlcNAcase (OGA). The hydrolysis FM-GlcNAc (Marker Gene technologies, cat #M1485) results in the formation of β-D-N-glucosamineacetate and fluorescein. The fluorescence of the latter can be measured at excitation wavelength 485 nm and emission wavelength 538 nm. An increase in enzyme activity results in an increase in fluorescence signal. Full length OGA enzyme was purchased at OnGene (cat #TP322411). The enzyme was stored in 25 mM Tris.HCl, pH 7.3, 100 mM glycine, 10% glycerol at −20° C. Thiamet G and GlcNAcStatin were tested as reference compounds (Yuzwa et al. 2008 Nature Chemical Biology 4:483; Yuzwa et al. 2012 Nature Chemical Biology 8:393). The assay was performed in 200 mM Citrate/phosphate buffer supplemented with 0.005% Tween-20. 35.6 g Na2HPO42H2O (Sigma, #C0759) were dissolved in 1 L water to obtain a 200 mM solution. 19.2 g citric acid (Merck, #1.06580) was dissolved in 1 L water to obtain a 100 mM solution. pH of the sodiumphosphate solution was adjusted with the citric acid solution to 7.2. The buffer to stop the reaction consists of a 500 mM Carbonate buffer, pH 11.0. 734 mg FM-GlcNAc were dissolved in 5.48 mL DMSO to obtain a 250 mM solution and was stored at −20° C. OGA was used at a 2 nM concentration and FM-GlcNAc at a 100 uM final concentration. Dilutions were prepared in assay buffer.
50 nl of a compound dissolved in DMSO was dispensed on Black Proxiplate TM 384 Plus Assay plates (Perkin Elmer, #6008269) and 3 μl fl-OGA enzyme mix added subsequently. Plates were pre-incubated for 60 min at room temperature and then 2 μl FM-GlcNAc substrate mix added. […] Plates were briefly centrifuged for 1 min at 1000 rpm and incubate at room temperature for 6 h. To stop the reaction 5 μl STOP buffer were added and plates centrifuge again 1 min at 1000 rpm. Fluorescence was quantified in the Thermo Scientific Fluoroskan Ascent or the PerkinElmer EnVision with excitation wavelength 485 nm and emission wavelength 538 nm.
For analysis a best-fit curve is fitted by a minimum sum of squares method. From this an IC50 value and Hill coefficient was obtained. High control (no inhibitor) and low control (saturating concentrations of standard inhibitor) were used to define the minimum and maximum values.

| Emax [1] [%] | EC50 [1] [nM] | Emax [2] [%] | IC50 [2] [nM] | SMILES |
| --- | --- | --- | --- | --- |
| 86 | 31.6 | 102 | 7.94 | Cc1cc(OC[C@H]2CCCN(C(C)c3ccc4c(n3)OCCO4)C2)cc(C)n1 (mixture of isomers) [Product 19] |
| 81 | 15.8 | 103 | 3.98 | Cc1cc(C[C@H]2CCCN(C(C)c3ccc4c(c3)OCC4)C2)cc(C)n1 (mixture of isomers) [Product 47] |
|  | > 1000 | 103 | 126 | Cc1cc(C[C@H]2CCCN(C(C)c3ccc4c(c3)OCCN4C)C2)cc(C)n1 (mixture of isomers) [Product 49] |
| 78 | 316 | 102 | 15.8 | Cc1cc(C[C@H]2CCCN(C(C)c3cnc4c(c3)OCCN4C)C2)cc(C)n1 (mixture of isomers) [Product 56] |
| 78 | 158 | 101 | 12.6 | Cc1cc(C[C@H]2CCCN(C(C)c3cnc4c(c3)OCC4)C2)cc(C)n1 (mixture of isomers) [Product 57] |
| 23 | > 1000 | 102 | 126 | Cc1cc(C[C@H]2CCCN(C(C)c3ccc4c(n3)OCC(=O)N4)C2)cc(C)n1 (mixture of isomers) [Product 59] |
| 69 | 31.6 | 101 | 7.94 | COc1cc(C[C@H]2CCCN(C(C)c3ccc4c(n3)OCCO4)C2)cc(C)n1 (mixture of isomers) [Product 63] |
| 89 | 79.4 | 102 | 7.94 | Cc1cc(C[C@H]2CCCN(C(C)c3ccc4c(n3)OCCO4)C2)cc(OC(F)(F)F)n1 (mixture of isomers) [Product 67] |
| 79 | 39.8 | 102 | 6.31 | Cc1cc(C[C@H]2CCCN(C(C)c3cc4c(cc3F)OCCO4)C2)cc(C(F)(F)F)n1 (mixture of isomers) [Product 68] |
| 90 | 50.1 | 102 | 12.6 | Cc1cc(C[C@H]2CCCN(C(C)c3ccc4c(n3)OCCO4)C2)cc(C(F)(F)F)n1 (mixture of isomers) [Product 69] |
| 29 | 316 | 98 | 12.6 | Cc1cc(CO[C@H]2CCCN([C@H](C)c3ccc4c(n3)OCCO4)C2)cc(C)n1 (mixture of isomers) [Product 111] |
| 8 | > 1000 | 98 | 200 | Cc1cc(CO[C@@H]2CCCN([C@H](C)c3ccc4c(n3)OCCO4)C2)cc(C)n1 (mixture of isomers) [Product 112] |
| 55 | 794 | 100 | 100 | Cc1cc(C2CCCN([C@H](C)c3ccc4c(n3)OCCO4)C2)nc(C)n1 (mixture of isomers) [Product 113] |
| 66 | 158 | 100 | 15.8 | Cc1cc(OC[C@H]2CCCN([C@H](C)c3ccc4c(n3)OCCO4)C2)nc(C)n1 (mixture of isomers) [Product 114] |
| 70 | 20 | 103 | 5.01 | Cc1cc([C@H]2CCCN([C@@H](C)c3ccc4c(c3)OCC4)C2)cc(C)n1 (racemic) [Product 4] |
| 69 | 7.94 | 102 | 7.94 | COc1cc(NC[C@H]2CCCN(C(C)c3ccc4c(n3)OCCO4)C2)cc(C)n1 (mixture of isomers) [Product 24] |
| 96 | 15.8 | 101 | 2 | Cc1cc(C[C@H]2CCCN(C(C)c3cc4c(cc3F)OCCO4)C2)cc(C)n1 (mixture of isomers) [Product 40] |
| 91 | 20 | 101 | 3.16 | Cc1cc(C[C@H]2CCCN(C(C)c3ccc4c(n3)OCCO4)C2)cc(C)n1 (mixture of isomers) [Product 44] |
| 85 | 39.8 | 103 | 10 | Cc1cc(C[C@H]2CCCN(C(C)c3cnc4c(c3)OCCN4)C2)cc(C)n1 (mixture of isomers) [Product 50] |
| 68 | 316 | 102 | 12.6 | COc1cc(OC[C@H]2CCCN([C@H](C)c3ccc4c(n3)OCCO4)C2)cc(C)n1 (racemic) [Product 110] |
| 104 | 2.51 | 95 | 2.51 | Cc1cc(OC[C@H]2CCCN(C(C)c3nc4c(cc3F)CCO4)C2)cc(C)n1 (mixture of isomers) [Product 178] |
